Calls of active or inactive are those of the source. No cut-off for these calls is given here.
Columns and labels:
[1] = test system: PC-12; experiment: Neuroprotective activity against CoCl2-induced cytotoxicity in rat PC12 cells assessed as increase in cell viability at 1 uM pretreated with CoCl2 for 8 hrs followed by incubation with drug and measured after 24 hrs by MTT assay; assay type: functional, cell-based
[2] = test system: PC-12; experiment: Neuroprotective activity against CoCl2-induced cytotoxicity in rat PC12 cells assessed as increase in cell viability pretreated with CoCl2 for 8 hrs followed by incubation with drug and measured after 24 hrs by MTT assay relative to control; assay type: functional
[3] = test system: PC-12; experiment: Neuroprotective activity against CoCl2-induced cytotoxicity in rat PC12 cells assessed as increase in cell viability pretreated with CoCl2 for 8 hrs followed by incubation with drug and measured after 24 hrs by MTT assay; assay type: functional, cell-based
[4] = n-Octanol/saturated water patition coefficient, logP of the compound at 0.05 mg/ml incubated for 24 hrs by HPLC analysis; assay type: physicochemical
[5] = target: T1, Amine oxidase [flavin-containing] B (Homo sapiens, UniProt P27338); experiment: Competitive inhibition of human recombinant MAO-B expressed in baculovirus infected BTI cells assessed as inhibition of 4-hydroxyquinoline formation using varying concentration of kynuramine as substrate preincubated with enzyme for 10 mins followed by addition of substrate and measured after 15 mins by Lineweaver-Burk plot analysis
T1 sequence (P27338 whole entry): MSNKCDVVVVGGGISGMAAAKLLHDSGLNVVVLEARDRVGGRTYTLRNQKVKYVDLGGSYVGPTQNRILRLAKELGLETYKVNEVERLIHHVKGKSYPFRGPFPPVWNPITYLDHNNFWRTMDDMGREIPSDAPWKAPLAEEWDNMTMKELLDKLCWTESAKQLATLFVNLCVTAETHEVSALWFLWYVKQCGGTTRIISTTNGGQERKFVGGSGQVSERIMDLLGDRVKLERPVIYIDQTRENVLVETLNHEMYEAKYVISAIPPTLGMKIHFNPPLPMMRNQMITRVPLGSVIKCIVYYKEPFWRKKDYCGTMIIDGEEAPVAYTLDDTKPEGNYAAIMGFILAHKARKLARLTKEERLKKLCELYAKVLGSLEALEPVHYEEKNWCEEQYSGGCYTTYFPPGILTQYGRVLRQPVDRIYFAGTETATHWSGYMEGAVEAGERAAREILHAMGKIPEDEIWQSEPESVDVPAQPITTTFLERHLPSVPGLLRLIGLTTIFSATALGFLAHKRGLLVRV

[6] = target: T1, Amine oxidase [flavin-containing] B; experiment: Inhibition of human recombinant MAO-B expressed in baculovirus infected BTI cells assessed as inhibition of 4-hydroxyquinoline formation using kynuramine as substrate preincubated with enzyme for 10 mins followed by addition of substrate and measured after 15 mins by fluorescence spectrophotometry relative to control; details: 0.25 h, time 25 min, read-out: Imax
[7] = target: T1, Amine oxidase [flavin-containing] B; experiment: Inhibition of human recombinant MAO-B expressed in baculovirus infected BTI cells assessed as inhibition of 4-hydroxyquinoline formation using kynuramine as substrate preincubated with enzyme for 10 mins followed by addition of substrate and measured after 15 mins by fluorescence spectrophotometry
[8] = test system: Rattus norvegicus; experiment: Inhibition of mitochondrial pathway of apoptosis in damaged cerebral hemisphere of middle cerebral artery occlusion-induced ischemia-reperfusion injury Sprague-Dawley rat model assessed as decrease in complement C3 protein expression at 25 mg/kg/day, ip administered for 2 days by western blot analysis; assay type: functional, organism-based; details: time 2.0 day
[9] = test system: Rattus norvegicus; experiment: Inhibition of mitochondrial pathway of apoptosis in damaged cerebral hemisphere of middle cerebral artery occlusion-induced ischemia-reperfusion injury Sprague-Dawley rat model assessed as increase in NeuN protein expression at 25 mg/kg/day, ip administered for 2 days by western blot analysis; assay type: functional, organism-based; details: time 2.0 day
[10] = test system: Rattus norvegicus; experiment: Neuroprotective activity against middle cerebral artery occlusion-induced ischemia-reperfusion injury Sprague-Dawley rat model assessed as decrease in cerebral infarct volume at 12.5 to 50 mg/kg/day, ip administered for 2 days by magnetic resonance imaging analysis; assay type: functional, organism-based; details: dose 12.5-50 mg/kg/day, time 2.0 day
[11] = test system: Rattus norvegicus; experiment: Neuroprotective activity against middle cerebral artery occlusion-induced ischemia-reperfusion injury Sprague-Dawley rat model assessed as decrease in neurological deficit score administered ip for 2 days; assay type: functional, organism-based; details: dose 12.5-50 mg/kg/day, time 2.0 day
[12] = test system: Rattus norvegicus; experiment: Inhibition of mitochondrial pathway of apoptosis in damaged cerebral hemisphere of middle cerebral artery occlusion-induced ischemia-reperfusion injury Sprague-Dawley rat model assessed as increase in ratio of Bcl-2 to Bax at 25 mg/kg/day, ip administered for 2 days by western blot analysis; assay type: functional, organism-based; details: time 2.0 day
[13] = test system: Rattus norvegicus; experiment: Ex vivo inhibition of MAO activity in infarcted cerebral hemisphere of middle cerebral artery occlusion-induced ischemia-reperfusion injury Sprague-Dawley rat model assessed as inhibition of 4-hydroxyquinoline formation using kynuramine as substrate at 25 mg/kg/day, ip for 2 days by fluorescence spectrophotometry; assay type: functional, organism-based; details: time 2.0 day

SMILES | Activity [1] | other results
O=C(/C=C/c1ccccc1)Oc1ccc(CCO[C@@H]2O[C@H](CO)[C@@H](O)[C@H](O)[C@H]2O)cc1 | Active | –
Cc1ccccc1C(=O)Oc1ccc(CCO[C@@H]2O[C@H](CO)[C@@H](O)[C@H](O)[C@H]2O)cc1 | Active | –
OC[C@H]1O[C@@H](OCCc2ccc(O)cc2)[C@H](O)[C@@H](O)[C@@H]1O [SALIDROSIDE] | Active | Emax [2]: 27%; EC50 [3]: 300 nM; logP ([4]; octanol/water, 24 h): -0.89; Ki [5]: 920 nM; Emax [6]: 52%; IC50 [7]: 810 nM
C=CC(=O)Oc1ccc(CCO[C@@H]2O[C@H](CO)[C@@H](O)[C@H](O)[C@H]2O)cc1 | Active | –
CCCCCCC(=O)Oc1ccc(CCO[C@@H]2O[C@H](CO)[C@@H](O)[C@H](O)[C@H]2O)cc1 | Active | –
CC(=O)Oc1ccc(CCO[C@@H]2O[C@H](CO)[C@@H](O)[C@H](O)[C@H]2O)cc1 | Active | –
CCc1ccc(C(=O)Oc2ccc(CCO[C@@H]3O[C@H](CO)[C@@H](O)[C@H](O)[C@H]3O)cc2)cc1 | Active | –
OCCc1ccc(O)cc1 | inactive | –
O=C(Oc1ccc(CCO[C@@H]2O[C@H](CO)[C@@H](O)[C@H](O)[C@H]2O)cc1)c1ccc2ccccc2c1 | inactive | –
CCCc1ccc(C(=O)Oc2ccc(CCO[C@@H]3O[C@H](CO)[C@@H](O)[C@H](O)[C@H]3O)cc2)cc1 | Active | –
O=C(Oc1ccc(CCO[C@@H]2O[C@H](CO)[C@@H](O)[C@H](O)[C@H]2O)cc1)c1cccc(Cl)c1 | inactive | –
O=C(Oc1ccc(CCO[C@@H]2O[C@H](CO)[C@@H](O)[C@H](O)[C@H]2O)cc1)c1cccc(CCl)c1 | inactive | –
CC(=O)OC[C@H]1O[C@@H](OCCc2ccc(O)cc2)[C@H](O)[C@@H](OC(C)=O)[C@@H]1O | inactive | –
CC(=O)OC[C@H]1O[C@@H](OCCc2ccc(O)cc2)[C@H](O)[C@@H](O)[C@@H]1O | inactive | –
Cc1ccc(C(=O)Oc2ccc(CCO[C@@H]3O[C@H](CO)[C@@H](O)[C@H](O)[C@H]3O)cc2)cc1 | Active | –
O=C(OC[C@H]1O[C@@H](OCCc2ccc(O)cc2)[C@H](O)[C@@H](O)[C@@H]1O)c1ccccc1 | inactive | –
O=C(Oc1ccc(CCO[C@@H]2O[C@H](CO)[C@@H](O)[C@H](O)[C@H]2O)cc1)c1c(Cl)cccc1Cl | inactive | –
OC[C@H]1O[C@@H](O)[C@H](O)[C@@H](O)[C@@H]1O | inactive | –
O=C(Oc1ccc(CCO[C@@H]2O[C@H](CO)[C@@H](O)[C@H](O)[C@H]2O)cc1)c1ccccc1 | Active | Emax [2]: 42%; EC50 [3]: 38 nM; inhibition [8]: Active; inhibition [9]: Active; logP at 24 h ([4]; n-octanol/saturated water): 1.44; Activity [10]: Active; Ki [5]: 41 nM; Activity [11]: Dose-dependent effect; Emax [6]: 73.6%; inhibition [12]: Active; IC50 [7]: 80 nM; inhibition [13]: Active
O=C(Oc1ccc(CCO[C@@H]2O[C@H](CO)[C@@H](O)[C@H](O)[C@H]2O)cc1)c1cccc(Cl)c1Cl | inactive | –
O=C(Oc1ccc(CCO[C@@H]2O[C@H](CO)[C@@H](O)[C@H](O)[C@H]2O)cc1)c1ccc(Cl)c(Cl)c1 | inactive | –
COc1ccc(C(=O)Oc2ccc(CCO[C@@H]3O[C@H](CO)[C@@H](O)[C@H](O)[C@H]3O)cc2)cc1 | Active | –
O=S(=O)(Oc1ccc(CCO[C@@H]2O[C@H](CO)[C@@H](O)[C@H](O)[C@H]2O)cc1)c1ccccc1 | inactive | –
OC[C@H]1O[C@H](OCCc2ccc(O)cc2)[C@H](O)[C@@H](O)[C@@H]1O | inactive | –
O=C(Oc1ccc(CCO[C@@H]2O[C@H](CO)[C@@H](O)[C@H](O)[C@H]2O)cc1)c1ccc(CCl)cc1 | inactive | –
Cc1cccc(C(=O)Oc2ccc(CCO[C@@H]3O[C@H](CO)[C@@H](O)[C@H](O)[C@H]3O)cc2)c1 | Active | –
O=C(Oc1ccc(CCO[C@@H]2O[C@H](CO)[C@@H](O)[C@H](O)[C@H]2O)cc1)C1CCCCC1 | Active | –
C/C=C/C(=O)Oc1ccc(CCO[C@@H]2O[C@H](CO)[C@@H](O)[C@H](O)[C@H]2O)cc1 | Active | –
O=C(Oc1ccc(CCO[C@@H]2O[C@H](CO)[C@@H](O)[C@H](O)[C@H]2O)cc1)c1cccc(F)c1 | Active | –
O=C(Oc1ccc(CCO[C@@H]2O[C@H](CO)[C@@H](O)[C@H](O)[C@H]2O)cc1)c1ccc(C(F)(F)F)cc1 | Active | –

From ChEMBL document CHEMBL4706619, “Synthesis and identification of a novel derivative of salidroside as a selective, competitive inhibitor of monoamine oxidase B with enhanced neuroprotective properties” (Eur J Med Chem, 2021)
